These molecules were tested against recombinant DYRK1A kinase (Homo sapiens (Human), UniProt Q13627) (assay: DYRK1A kinase assay (Ser/Thr 18 peptide Z-lyte FRET)). Conditions: DYRK1A kinase activity, Z-lyte Ser/Thr 18 peptide, 15 μM ATP; method text calls the value IC50; read-out: EC50 (the source's name).
Assay type: biochemical
Description: Representative compounds were screened using the assay procedure for DYRK1A kinase activity as described below.
Each compound was dissolved in DMSO as a 10 mM stock and used to prepare compound source plates. Serial dilution (1:3, 11-point dose-response curves from 10 μM to 0.00016 μM) and compound transfer was performed using the ECHO 550 (Labcyte, Sunnyvale, CA) into 1536-well black-walled round bottom plates (Coming).
The DYRK1A kinase assay was run using the Ser/Thr 18 peptide Z-lyte assay kit according to manufacturer's instructions (Life Technologies-a Division of Thermo-Fisher). This is a non-radioactive assay using fluorescence resonance energy transfer (FRET) between coumarin and fluorescein to detect kinase activity which is represented as a ratio of coumarin emission/fluorescein emission.
Briefly, recombinant DYRK1A kinase, ATP and Ser/Thr peptide 18 were prepared in 1X Kinase buffer to final concentrations of 0.25 μg/mL, 15 μM, and 4 μM respectively. The mixture was allowed to incubate with the representative compounds for one hour at room temperature. All reactions were performed in duplicate. Unphosphorylated (“0% Control”) and phosphorylated (“100% control”) forms of Ser/Thr 18 served as control reactions. Additionally, an 11-point dose-response curve of Staurosporine (luM top) was run to serve as a positive compound control.
After incubation, Development Reagent A was diluted in Development Buffer then added to the reaction and allowed to further incubate for one hour at room temperature. The plate was read at Ex 400 Em 455 to detect the coumarin signal and Ex 400 Em 520 to measure the signal (EnVision Multilabel Plate Reader, PerkinElmer).
The Emission ratio (Em) was calculated as a ratio of the coumarin (C) emission signal (at 445 nm)/Fluorescein (F) emission signal (at 520 nm). The percent phosphorylation was then calculated using the following formula: [1−((Em ratio X F100%)-C100%)/((C0%-C100%) +(Em ratio X (F100%−F0%)))]. Dose-response curves were generated, and inhibitory concentration (IC50) values were calculated using non-linear regression curve fit in the Dotmatics' Studies Software (Bishops Stortford, UK).
Molecule `COc1nc(N[C@H]2CCN(C3COC3)C[C@H]2F)nn2ccc(-c3ccc4ncn(CC(F)F)c4c3)c12` [Compound 1141, 5-(1-(2,2-Difluoroethyl)-1H-benzo[d]imidazol-6-yl)-N-((3R,4S)-3-fluoro-1-(oxetan-3-yl)piperidin-4-yl)-4-methoxypyrrolo[2,1-f][1,2,4]triazin-2-amine] has an IC50 of 1.4 nM.
Molecule `COc1nc(NC2CCC3(CC2)CN(C(C)=O)C3)nn2ccc(-c3cnc4nccn4c3)c12` [Compound 273, 1-(7-((5-(Imidazo[1,2-a]pyrimidin-6-yl)-4-methoxypyrrolo[2,1-f][1,2,4]triazin-2-yl)amino)-2-azaspiro[3.5]nonan-2-yl)ethan-1-one] has an IC50 of 1.8 nM.
For `COc1nc(N[C@H]2CC[C@](C)(O)CC2)nn2cc(F)c(-c3ccc4ncnn4c3)c12` [Compound 589, (1r,4r)-4-((5-([1,2,4]Triazolo[1,5-a]pyridin-6-yl)-6-fluoro-4-methoxypyrrolo-[2,1-f][1,2,4]triazin-2-yl)amino)-1-methylcyclohexan-1-ol], the IC50 was 0.9 nM.
For `COc1nc(N[C@@H]2CCN(C3COC3)C[C@@H]2F)nn2ccc(-c3cnc4nccn4c3)c12` [Compound 269, N-((3S,4R)-3-Fluoro-1-(oxetan-3-yl)piperidin-4-yl)-5-(imidazo[1,2-a]pyrimidin-6-yl)-4-methoxypyrrolo[2,1-f][1,2,4]triazin-2-amine], the IC50 was 2.3 nM.
`CNC(=O)c1cnc2ccc(-c3ccn4nc(NC5CCC6(CC5)COC6)nc(OC)c34)cn12` [Compound 107, 6-(2-((2-Oxaspiro[3.5]nonan-7-yl)amino)-4-methoxypyrrolo[2,1-f][1,2,4]triazin-5-yl)-N-methylimidazo[1,2-a]pyridine-3-carboxamide] showed an IC50 of 0.9 nM.
`COc1nc(NC2CCC3(CC2)COC3)nn2ccc(-c3ccc4ncccc4c3)c12` [Compound 326, 4-Methoxy-5-(quinolin-6-yl)-N-(2-oxaspiro[3.5]nonan-7-yl)pyrrolo[2,1-f][1,2,4]triazin-2-amine] was tested, and the IC50 was 7.3 nM.
With `CCC(=O)N1CC[C@@H](Nc2nc(OC)c3c(-c4ccc5nnn(CC(F)F)c5c4)ccn3n2)[C@@H](F)C1` [Compound 772, 1-((3S,4R)-4-((5-(1-(2,2-Difluoroethyl)-1H-benzo[d][1,2,3]triazol-6-yl)-4-methoxypyrrolo[2,14][1,2,4]triazin-2-yl)amino)-3-fluoropiperidin-1-yl)propan-1-one] the IC50 was 2 nM.
`COc1nc(N[C@@H]2CN(C(C)=O)C[C@@H]2F)nn2ccc(-c3cc(F)c4nc(C)n(CC(F)F)c4c3)c12` [Compound 513, 1-((3R,4S)-3-((5-(1-(2,2-Difluoroethyl)-4-fluoro-2-methyl-1H-benzo[d]imidazol-6-yl)-4-methoxypyrrolo[2,1-f][1,2,4]triazin-2-yl)amino)-4-fluoropyrrolidin-1-yl)ethan-1-one] gave an IC50 of 2.8 nM.
`COc1nc(N[C@@H]2C[C@@H]3CN(C(C)=O)C[C@@H]3C2)nn2ccc(-c3ccc4nnn(C)c4c3)c12` [Compound 228, 1-((3aR,5r,6aS)-5-((4-Methoxy-5-(1-methyl-1H-benzo[d][1,2,3]triazol-6-yl)pyrrolo[2,1-f][1,2,4]triazin-2-yl)amino)hexahydrocyclopenta[c]pyrrol-2(1H)-yl)ethan-1-one] showed an IC50 of 3.4 nM.
In the case of `COc1nc(N[C@@H]2CCN(C(C)=O)CC2(F)F)nn2ccc(-c3ccc4nnn(CC(F)F)c4c3)c12` [Compound 788, (R)-1-(4-((5-(1-(2,2-Difluoroethyl)-1H-benzo[d][1,2,3]triazol-6-yl)-4-methoxypyrrolo[2,1-f][1,2,4]triazin-2-yl)amino)-3,3-difluoropiperidin-1-yl)ethan-1-one], the IC50 is reported as 0.7 nM.
Work on `COc1nc(NCC(C)(C)C#N)nn2ccc(-c3ccc4nnn(CC(F)F)c4c3)c12` [Compound 695, 3-((5-(1-(2,2-Difluoroethyl)-1H-benzo[d][1,2,3]triazol-6-yl)-4-methoxypyrrolo[2,1-f][1,2,4]triazin-2-yl)amino)-2,2-dimethylpropanenitrile] yielded an IC50 of 1.3 nM.
`COc1nc(N[C@H]2CC[C@@H](NC(C)=O)CC2)nn2ccc(-c3ccc4nnn(CC(F)F)c4c3)c12` [Compound 717, N-(cis-4-((5-(1-(2,2-Difluoroethyl)-1H-benzo[d][1,2,3]triazol-6-yl)-4-methoxypyrrolo[2,1-f][1,2,4]triazin-2-yl)amino)cyclohexyl)acetamide] gave an IC50 of 2.3 nM.
`COc1nc(N[C@H]2CC[C@](C)(O)CC2)nn2ccc(-c3ccc4nnn(/C=C/F)c4c3)c12` [Compound 672, (1r,4r)-4-((5-(1-((E)-2-fluorovinyl)-1H-benzo[d][1,2,3]triazol-6-yl)-4-methoxypyrrolo[2,1-f][1,2,4]triazin-2-yl)amino)-1-methylcyclohexan-1-ol] was tested, and the IC50 was 5.9 nM.
With `COc1nc(N[C@H]2CCNC[C@H]2F)nn2ccc(-c3ccn4nccc4c3)c12` [Compound 30, N-((3R,4S)-3-Fluoropiperidin-4-yl)-4-methoxy-5-(pyrazolo[1,5-a]pyridin-5-yl)pyrrolo[2,1-f][1,2,4]triazin-2-amine] the IC50 was 22.1 nM.
`COc1nc(N[C@H]2CCN(CC(C)(C)O)C[C@H]2F)nn2cc(F)c(-c3ccc4ncccc4c3)c12` [Compound 1058, 1-((3R,4S)-3-Fluoro-4-((6-fluoro-4-methoxy-5-(quinolin-6-yl)pyrrolo[2,1-f][1,2,4]triazin-2-yl)amino)piperidin-1-yl)-2-methylpropan-2-ol] showed an IC50 of 2.3 nM.
`COc1nc(NC2CCN(C(C)=O)CC2)nn2ccc(-c3ccn4nccc4c3)c12` [Compound 27, 1-(4-((4-Methoxy-5-(pyrazolo[1,5-a]pyridin-5-yl)pyrrolo[2,1-f][1,2,4]triazin-2-yl)amino)piperidin-1-yl)ethan-1-one] showed an IC50 of 9960 nM.
Work on `COc1nc(N[C@H]2C[C@@](C)(NC(C)=O)C2)nn2ccc(-c3cnc4nccn4c3)c12` [Compound 934, N-((1s,3s)-3-((5-(Imidazo[1,2-a]pyrimidin-6-yl)-4-methoxypyrrolo[2,1-f][1,2,4]triazin-2-yl)amino)-1-methylcyclobutyl)acetamide] yielded an IC50 of 1.6 nM.
In the case of `COc1nc(N[C@H]2CC[C@@H](OCCO)CC2)nn2ccc(-c3ccc4nccn4c3)c12` [Compound 49, 2-((cis-4-((5-(Imidazo[1,2-a]pyridin-6-yl)-4-methoxypyrrolo[2,1-f][1,2,4]triazin-2-yl)amino)cyclohexyl)oxy)ethan-1-ol], the IC50 is reported as 2.6 nM.
Work on `COc1nc(N[C@H]2CCN(C)C[C@H]2F)nn2ccc(-c3ccn4nccc4c3)c12` [Compound 34, N-((3R,4S)-3-Fluoro-1-methylpiperidin-4-yl)-4-methoxy-5-(pyrazolo[1,5-a]pyridin-5-yl)pyrrolo[2,1-f][1,2,4]triazin-2-amine] yielded an IC50 of 6.2 nM.
`COc1nc(N[C@@H]2CCCOC2)nn2ccc(-c3ccc4ncccc4c3)c12` [Compound 1050, (R)-4-Methoxy-5-(quinolin-6-yl)-N-(tetrahydro-2H-pyran-3-yl)pyrrolo[2,1-f][1,2,4]triazin-2-amine] gave an IC50 of 13.5 nM.
For `COc1nc(N[C@@H]2CCN(C)CC2(F)F)nn2ccc(-c3ccc4nnn(C)c4c3)c12` [Compound 626, (R)—N-(3,3-Difluoro-1-methylpiperidin-4-yl)-4-methoxy-5-(1-methyl-1H-benzo[d][1,2,3]triazol-6-yl)pyrrolo[2,1-f][1,2,4]triazin-2-amine], the IC50 was 2.7 nM.
`COc1nc(NC2CCC3(CC2)COC3)nn2ccc(-c3ccc4nccnc4c3)c12` [Compound 390, 4-Methoxy-5-(quinoxalin-6-yl)-N-(2-oxaspiro[3.5]nonan-7-yl)pyrrolo[2,1-f][1,2,4]triazin-2-amine] gave an IC50 of 3 nM.
Molecule `COc1nc(N[C@@H]2CCN(C(C)=O)CC2(F)F)nn2ccc(-c3cc(F)c4nc(C)n(CC(F)F)c4c3)c12` [Compound 526, (R)-1-(4-((5-(1-(2,2-Difluoroethyl)-4-fluoro-2-methyl-1H-benzo[d]imidazol-6-yl)-4-methoxypyrrolo[2,1-f][1,2,4]triazin-2-yl)amino)-3,3-difluoropiperidin-1-yl)ethan-1-one] has an IC50 of 1.6 nM.
`COc1nc(N[C@@H]2CCN(C(C)=O)C[C@@H]2F)nn2ccc(-c3cc(F)c4nc(C)n(CC(F)F)c4c3)c12` [Compound 520, 1-((3S,4R)-4-((5-(1-(2,2-Difluoroethyl)-4-fluoro-2-methyl-1H-benzo[d]imidazol-6-yl)-4-methoxypyrrolo[2,1-f][1,2,4]triazin-2-yl)amino)-3-fluoropiperidin-1-yl)ethan-1-one] gave an IC50 of 3 nM.
`C[C@]1(O)CC[C@H](Nc2nc(OCC(F)F)c3c(-c4ccc5nccnc5c4)ccn3n2)CC1` [Compound 1130, (1r,4r)-4-((4-(2,2-Difluoroethoxy)-5-(quinoxalin-6-yl)pyrrolo[2,1-f][1,2,4]triazin-2-yl)amino)-1-methylcyclohexan-1-ol] gave an IC50 of 0.8 nM.

Source: patent US20240002391A1, “4-ALKOXYPYRROLO[2,1-F][1,2,4]TRIAZINES AND PREPARATION AND USES THEREOF” (BioSplice Therapeutics, Inc., priority 2022, published 2024)
